Experimental data taken from ChEMBL document CHEMBL1201862, “PubChem BioAssay data set” (2004).
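Each compound was tested at five concentrations against cells in 96-well plates for 48 hours. GI50: concentration for 50% inhibition of growth.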 Calls of active or inactive are those of the source. Rule as the data show it: active = GI50 up to about 1.1 µM and inactive = higher.

Experiments:
Test in all cases: NCI anticancer screen, dose series, 48 h
A549 = test system: A549
ACHN = test system: ACHN
CCRF-CEM = test system: CCRF-CEM
COLO 205 = test system: COLO 205
HCC 2998 = test system: HCC 2998
HCT-116 = test system: HCT-116
IGROV-1 = test system: IGROV-1
NCI-H23 = test system: NCI-H23
OVCAR-4 = test system: OVCAR-4
OVCAR-5 = test system: OVCAR-5
OVCAR-8 = test system: OVCAR-8
RPMI-8226 = test system: RPMI-8226
SF-539 = test system: SF-539
SK-OV-3 = test system: SK-OV-3
TK-10 = test system: TK-10
UACC-257 = test system: UACC-257
HL-60 = test system: HL-60

Measured: GI50

NC1=NC(Cn2nc(-c3ccccc3)c3ccccc3c2=O)=NNC(=O)N1
inactive: A549 > 100 µM | ACHN > 100 µM | CCRF-CEM > 100 µM | COLO 205 > 100 µM | HCC 2998 > 100 µM | HCT-116 > 100 µM | IGROV-1 > 100 µM | NCI-H23 > 100 µM | OVCAR-4 > 100 µM | OVCAR-5 > 100 µM | OVCAR-8 > 100 µM | RPMI-8226 > 100 µM | SF-539 > 100 µM | SK-OV-3 > 100 µM | TK-10 > 100 µM | UACC-257 > 100 µM

Cc1ccc(N2C[N+](c3ccccc3)=NC(c3ccccc3)=N2)cc1
inactive: A549 66.8 µM | ACHN 32.7 µM | CCRF-CEM 19.6 µM | COLO 205 31.8 µM | HCC 2998 48.3 µM | HCT-116 35.4 µM | HL-60 33.6 µM | IGROV-1 48.4 µM | NCI-H23 38.9 µM | OVCAR-4 40.1 µM | OVCAR-5 > 100 µM | OVCAR-8 48.1 µM | RPMI-8226 33 µM | TK-10 > 100 µM | UACC-257 53.2 µM

Cc1cc(O)nc(CNC(=O)c2cccc3ccccc23)n1
inactive: A549 > 100 µM | ACHN > 100 µM | CCRF-CEM > 100 µM | COLO 205 > 100 µM | HCC 2998 > 100 µM | HCT-116 > 100 µM | HL-60 > 100 µM | IGROV-1 > 100 µM | NCI-H23 > 100 µM | OVCAR-4 > 100 µM | OVCAR-8 > 100 µM | SF-539 > 100 µM | SK-OV-3 > 100 µM | TK-10 > 100 µM | UACC-257 > 100 µM

S=c1[nH]c2ccc(Br)cc2c(=S)n1-c1ccccc1
inactive: A549 26.7 µM | ACHN 20.3 µM | CCRF-CEM 11.8 µM | COLO 205 22.2 µM | HCC 2998 13.7 µM | HCT-116 8.75 µM | IGROV-1 20.6 µM | NCI-H23 10.7 µM | OVCAR-4 28.7 µM | OVCAR-5 32.5 µM | OVCAR-8 30.5 µM | RPMI-8226 8.26 µM | SF-539 14.8 µM | SK-OV-3 43.4 µM | TK-10 42.4 µM | UACC-257 16.4 µM

CS/C(C)=N/OC(=O)NCCCCNc1ccc(N=[N+]=[N-])cc1
inactive: A549 30.4 µM | ACHN 26.2 µM | CCRF-CEM 24.2 µM | COLO 205 36.1 µM | HCC 2998 23.9 µM | HCT-116 34.2 µM | IGROV-1 87.3 µM | NCI-H23 34.9 µM | OVCAR-4 42.9 µM | OVCAR-5 > 100 µM | OVCAR-8 47.9 µM | RPMI-8226 18.4 µM | SF-539 50.5 µM | SK-OV-3 37.9 µM | TK-10 33.3 µM | UACC-257 30.9 µM
